Source: ChEMBL document CHEMBL5674870, “Uropathogenic E. coli (UPEC) Infection Induces Proliferation through Enhancer of Zeste Homologue 2 (EZH2)” (PLoS One, 2016)
The source made the active and inactive calls. No cut-off for these calls is given here.

Experiments:
[1] = molecular target: Histone-lysine N-methyltransferase EZH2 (Homo sapiens) (UniProt Q15910); test: Inhibition of EZH2 in human HT-5637 cells assessed as decrease in uropathogenic Escherichia coli infection-induced host cell proliferation at 500 nM measured 24 to 72 hrs after infection by immunofluorescence analysis; format: cell-based; conditions: time 24-72 hrs
[2] = molecular target: Histone-lysine N-methyltransferase EZH2 (Homo sapiens) (UniProt Q15910); test: Inhibition of EZH2 in human HT-5637 cells assessed as decrease in uropathogenic Escherichia coli infection-induced WNT3A mRNA level by qRT-PCR analysis; format: cell-based
[3] = Inhibition of KDM6A/6B in human HT-5637 cells assessed as increase in uropathogenic Escherichia coli infection-induced WNT3A mRNA level by qRT-PCR analysis; format: toxicity, cell-based
[4] = Inhibition of KDM6A/6B in human HT-5637 cells assessed as increase in uropathogenic Escherichia coli infection-induced host cell proliferation at 100 nM measured 24 to 72 hrs after infection by immunofluorescence analysis; format: toxicity, cell-based; conditions: human, 5637, 0.1 µM, time 24-72 hrs

Sequence of Histone-lysine N-methyltransferase EZH2 (Homo sapiens) (Q15910 whole entry, looked up): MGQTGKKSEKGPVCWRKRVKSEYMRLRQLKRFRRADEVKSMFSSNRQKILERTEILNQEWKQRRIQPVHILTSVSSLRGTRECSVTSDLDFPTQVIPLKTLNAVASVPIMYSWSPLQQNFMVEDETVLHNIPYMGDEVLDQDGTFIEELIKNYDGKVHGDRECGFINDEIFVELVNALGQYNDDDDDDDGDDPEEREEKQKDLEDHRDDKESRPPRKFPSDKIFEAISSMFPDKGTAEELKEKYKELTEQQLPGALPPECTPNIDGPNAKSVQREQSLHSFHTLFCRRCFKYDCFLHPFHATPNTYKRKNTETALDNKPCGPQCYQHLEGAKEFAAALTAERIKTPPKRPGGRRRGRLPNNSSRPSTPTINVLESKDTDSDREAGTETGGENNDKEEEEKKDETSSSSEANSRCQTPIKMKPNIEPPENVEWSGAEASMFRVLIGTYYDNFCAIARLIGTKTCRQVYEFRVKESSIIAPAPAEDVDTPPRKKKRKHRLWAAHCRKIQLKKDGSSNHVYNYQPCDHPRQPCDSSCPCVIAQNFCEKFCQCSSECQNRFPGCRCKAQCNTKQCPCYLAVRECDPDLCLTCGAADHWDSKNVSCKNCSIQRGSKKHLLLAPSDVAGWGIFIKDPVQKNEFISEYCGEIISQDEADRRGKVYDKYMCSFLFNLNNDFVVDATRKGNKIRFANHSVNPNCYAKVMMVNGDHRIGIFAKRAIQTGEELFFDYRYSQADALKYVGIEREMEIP

Compound | inhibition [1] | inhibition [2] | inhibition (INH) [3] | inhibition (INH) [4]
CCCc1cc(C)[nH]c(=O)c1CNC(=O)c1cc(-c2ccc(N3CCN(C(C)C)CC3)nc2)cc2c1cnn2C(C)C | Active | Active |  | 
CCOC(=O)CCNc1cc(N2CCc3ccccc3CC2)nc(-c2ccccn2)n1 |  |  | Active | Active
